Measurements from ChEMBL document CHEMBL5247616, “Discovery of a NADPH oxidase inhibitor, (E)-3-cyclohexyl-5-(4-((2-hydroxyethyl)(methyl)amino)benzylidene)-1-methyl-2-thioxoimidazolidin-4-oneone, as a novel therapeutic for Parkinson's disease” (Eur J Med Chem, 2022).
Calls of active or inactive are those of the source. The rule behind the calls is not given here.

How the values were obtained:
[1] = Metabolic stability in human liver microsomes assessed as parent compound remaining preincubated for 5 mins followed by NADPH addition and measured after 30 mins by LC-MS/MS analysis; format: ADME, Microsome; details: read-out: Stability
[2] = Permeability coefficient of the compound across blood brain barrier at pH 7.4 incubated for 4 hrs by PAMPA assay; format: ADME; details: read-out: permeability
[3] = C0 in rat plasma at 2 mg/kg, iv measured after 24 hrs by HPLC-UV method; format: ADME, organism-based
[4] = Cmax in rat plasma at 10 mg/kg, po measured after 24 hrs by HPLC-UV method; format: ADME, organism-based; design: time 24 hrs, dose 10 mg/kg, route po
[5] = Cmax in rat plasma at 20 mg/kg, po measured after 24 hrs by HPLC-UV method; format: ADME, organism-based; design: time 24 hrs, dose 20 mg/kg, route po
[6] = Elimination half life in rat at 2 mg/kg, iv measured after 24 hrs by HPLC-UV method; format: ADME, organism-based; details: in vivo, read-out: beta t1/2 (converted)
[7] = Elimination half life in rat at 10 mg/kg, po measured after 24 hrs by HPLC-UV method; format: ADME, organism-based; details: in vivo, read-out: beta t1/2 (converted)
[8] = Elimination half life in rat at 20 mg/kg, po measured after 24 hrs by HPLC-UV method; format: ADME, organism-based; details: in vivo, read-out: beta t1/2 (converted)
[9] = Tmax in rat at 10 mg/kg, po measured after 24 hrs by HPLC-UV method; format: ADME, organism-based; details: in vivo
[10] = Tmax in rat at 20 mg/kg, po measured after 24 hrs by HPLC-UV method; format: ADME, organism-based; details: in vivo
[11] = AUClast in rat at 2 mg/kg, iv measured after 24 hrs by HPLC-UV method; format: ADME, organism-based; design: time 24 hrs, dose 2 mg/kg, route iv; details: in vivo
[12] = AUClast in rat at 10 mg/kg, po measured after 24 hrs by HPLC-UV method; format: ADME, organism-based; design: dose 10 mg/kg, time 24 hrs, route po; details: in vivo
[13] = AUClast in rat at 20 mg/kg, po measured after 24 hrs by HPLC-UV method; format: ADME, organism-based; design: dose 20 mg/kg, time 24 hrs, route po; details: in vivo
[14] = Elimination rate constant in rat at 2 mg/kg, iv measured after 24 hrs by HPLC-UV method; format: ADME, organism-based; details: in vivo, read-out: Ke (converted)
[15] = Elimination rate constant in rat at 10 mg/kg, po measured after 24 hrs by HPLC-UV method; format: ADME, organism-based; details: in vivo, read-out: Ke (converted)
[16] = Elimination rate constant in rat at 20 mg/kg, po measured after 24 hrs by HPLC-UV method; format: ADME, organism-based; details: in vivo, read-out: Ke (converted)
[17] = Volume of distribution in rat at 2 mg/kg, iv measured after 24 hrs by HPLC-UV method; format: ADME, organism-based; details: in vivo
[18] = Apparent volume of distribution in rat at 10 mg/kg, po measured after 24 hrs by HPLC-UV method; format: ADME, organism-based; details: in vivo
[19] = Apparent volume of distribution in rat at 20 mg/kg, po measured after 24 hrs by HPLC-UV method; format: ADME, organism-based; details: in vivo
[20] = Clearance in rat at 2 mg/kg, iv measured after 24 hrs by HPLC-UV method; format: ADME, organism-based; details: in vivo
[21] = Dose normalized clearance in rat at 10 mg/kg, po measured after 24 hrs by HPLC-UV method; format: ADME, organism-based; details: in vivo, read-out: Dose normalized clearance (converted)
[22] = Dose normalized clearance in rat at 20 mg/kg, po measured after 24 hrs by HPLC-UV method; format: ADME, organism-based; details: in vivo
[23] = Oral bioavailability in rat at 10 mg/kg measured after 24 hrs by HPLC-UV method; format: ADME, organism-based; details: in vivo
[24] = Oral bioavailability in rat at 20 mg/kg measured after 24 hrs by HPLC-UV method; format: ADME, organism-based; details: in vivo
[25] = Toxicity in male ICR mouse assessed as survival rate at 1000 mg/kg, po administered as single dose for 14 days; format: organism-based; details: in vivo, time 14 day
[26] = Toxicity in male ICR mouse assessed as survival rate at 300 mg/kg, iv administered as single dose for 14 days; format: organism-based; details: in vivo, time 14 day
[27] = Toxicity in male ICR mouse assessed as survival rate at 300 mg/kg, po administered as single dose for 14 days; format: organism-based; details: in vivo, time 14 day
[28] = Toxicity in male ICR mouse assessed as survival rate at 100 mg/kg, iv administered as single dose for 14 days; format: organism-based; details: in vivo, time 14 day
[29] = Toxicity in male ICR mouse assessed as survival rate at 100 mg/kg, po administered as single dose for 14 days; format: organism-based; details: in vivo, time 14 day
[30] = Toxicity in male ICR mouse assessed as survival rate at 30 mg/kg, iv administered as single dose for 14 days; format: organism-based; details: in vivo, time 14 day
[31] = Toxicity in male ICR mouse assessed as survival rate at 10 mg/kg, iv administered as single dose for 14 days; format: organism-based; details: in vivo, time 14 day
[32] = Toxicity in female ICR mouse assessed as survival rate at 1000 mg/kg, po administered as single dose for 14 days; format: organism-based; details: in vivo, time 14 day
[33] = Toxicity in female ICR mouse assessed as survival rate at 300 mg/kg, iv administered as single dose for 14 days; format: organism-based; details: in vivo, time 14 day
[34] = Toxicity in female ICR mouse assessed as survival rate at 300 mg/kg, po administered as single dose for 14 days; format: organism-based; details: in vivo, time 14 day
[35] = Toxicity in female ICR mouse assessed as survival rate at 100 mg/kg, iv administered as single dose for 14 days; format: organism-based; details: in vivo, time 14 day
[36] = Toxicity in female ICR mouse assessed as survival rate at 100 mg/kg, po administered as single dose for 14 days; format: organism-based; details: in vivo, time 14 day
[37] = Toxicity in female ICR mouse assessed as survival rate at 30 mg/kg, iv administered as single dose for 14 days; format: organism-based; details: in vivo, time 14 day
[38] = Toxicity in female ICR mouse assessed as survival rate at 10 mg/kg, iv administered as single dose for 14 days; format: organism-based; details: in vivo, time 14 day
BV-2 [39] = experiment: Inhibition of LPS-induced ROS production in mouse BV-2 cells preincubated for 30 mins followed by LPS addition and measured at 10 sec interval for 15 mins by lucigenin based chemiluminescence assay; format: functional, cell-based; details: dose 1-10000 nM, time 45.0 min
BV-2 [40] = experiment: Antiinflammatory activity in mouse BV-2 cells assessed as suppression of LPS-stimulated iNOS production at 10 uM measured after 24 hrs by qPCR analysis; format: functional, cell-based
BV-2 [41] = experiment: Antiinflammatory activity in mouse BV-2 cells assessed as suppression of LPS-stimulated IL1beta production at 10 uM measured after 24 hrs by qPCR analysis; format: functional, cell-based
BV-2 [42] = experiment: Antiinflammatory activity in mouse BV-2 cells assessed as suppression of LPS-stimulated TNFalpha production at 10 uM measured after 24 hrs by qPCR analysis; format: functional, cell-based
BV-2 [43] = experiment: Inhibition of cell migration in LPS-induced mouse BV-2 cells at 10 uM incubated for 24 hrs by crystal violet staining based transwell assay; format: functional
Mus musculus [44] = experiment: Antineuroinflammatory activity against MPTP induced parkinson's disease in C57BL/6 mouse model assessed as decrease in IbA1+ microglial cells in substantia nigra at 10 mg/kg, po administered for 8 days by immunohistochemistry analysis; format: functional, organism-based; details: time 8.0 day
Mus musculus [45] = experiment: Antineuroinflammatory activity against MPTP induced parkinson's disease in C57BL/6 mouse model assessed as decrease in IbA1+ microglial cells in striatum at 10 mg/kg, po administered for 8 days by immunohistochemistry analysis; format: functional, organism-based; details: time 8.0 day
Mus musculus [46] = experiment: Antineuroinflammatory activity against MPTP induced parkinson's disease in C57BL/6 mouse model assessed as […] tyrosine hydroxylase positive dopaminergic neuron in substantia nigra at 10 mg/kg, po administered for 8 days by immunohistochemistry analysis; format: functional, organism-based; details: time 8.0 day
Mus musculus [47] = experiment: Antineuroinflammatory activity against MPTP induced parkinson's disease in C57BL/6 mouse model assessed as […] tyrosine hydroxylase positive dopaminergic neuron in striatum at 10 mg/kg, po administered for 8 days by immunohistochemistry analysis; format: functional, organism-based; details: time 8.0 day

`CN1C(=S)N(C2CCCCC2)C(=O)/C1=C\c1ccc(N(C)CCO)cc1` gave a remaining at 0.5 h [1] of 76.3%, a Papp at 4 h [2] of 13.6 ×10⁻⁶ cm/s and a C0 at 24 h [3] of 1700 ng/mL. It also gave a Cmax [4] of 609 ng/mL, a Cmax [5] of 783 ng/mL and a half-life [6] of 47.4 min. It also gave a half-life [7] of 301 min, a half-life [8] of 368 min and a Tmax [9] of 4.98 min. The Tmax [10] was 40.2 min, the AUC(0-t) at 24 h [11] was 468 ng·h/mL and the AUC(0-t) at 24 h [12] was 1310 ng·h/mL. The AUC(0-t) at 24 h [13] was 4160 ng·h/mL, the k el at 24 h [14] was 0.000367 s⁻¹ and the k el at 24 h [15] was 4.72e-05 s⁻¹. It also gave a k el at 24 h [16] of 4.42e-05 s⁻¹, a Vd [17] of 0.211 L and a Vd/F [18] of 1.99 L. The Vd/F [19] was 1.82 L, the clearance [20] was 3.62 mL/min and the CL/F [21] was 5.68 mL/min. The Dose normalized clearance [22] was 0.217 L/h, the bioavailability [23] was 56% and the bioavailability [24] was 88.9%. It also gave a survival at 336 h [25] of 100%, a survival at 336 h [26] of 100% and a survival at 336 h [27] of 100%. It also gave a survival at 336 h [28] of 100%, a survival at 336 h [29] of 100% and a survival at 336 h [30] of 100%. The survival at 336 h [31] was 100%, the survival at 336 h [32] was 100% and the survival at 336 h [33] was 100%. The survival at 336 h [34] was 100%, the survival at 336 h [35] was 100% and the survival at 336 h [36] was 100%. The survival at 336 h [37] was 100%, the survival at 336 h [38] was 100% and the inhibition (BV-2 [39]) was “Dose-Dependent Effect”. For the same molecule, the Activity (BV-2 [40]) was “Active”, the Activity (BV-2 [41]) was “Active” and the Activity (BV-2 [42]) was “Active”. For the same molecule, the inhibition (BV-2 [43]) was “Active”, the Activity (Mus musculus [44]) was “Active” and the Activity (Mus musculus [45]) was “Active”. The Activity (Mus musculus [46]) was “Active” and the Activity (Mus musculus [47]) was “Active”.
